# According to patent publication US12599592B2, “Therapeutic small molecules for treatment of pulmonary hypertension” (UNIVERSITY OF PITTSBURGH—OF THE COMMONWEALTH SYSTEM OF …, priority 2020, dated 2026):
# How the values were obtained:
# Assay type in all cases: cell-based, human
# glutathionylated ISCU = test: ISCU glutathionylation by immunoprecipitation and immunoblot in PAECs; conditions: hypoxic PAECs, BRD2889 1 mM, 24 h
# Protocol: (§1) Protein stability assay: The proteasome inhibitor MG132 (M7449, Sigma) was stored at −20° C. at a concentration of 10 mM diluted in dimethyl sulfoxide (DMSO). PAECs were exposed to MG132 ([…]) vs. DMSO vehicle control for 2 hr under hypoxia, prior to harvesting of cellular lysate for immunoblotting.
# Immunoblot and densitometry: Cells were lysed in RIPA buffer (Sigma) along with 1× protease inhibitor cocktail (Sigma). Protein lysate was resolved by gradient 4%-15% SDS-PAGE gels and transferred onto a 0.2 μm PVDF membrane (Bio-Rad). Membranes were blocked in 5% non-fat milk in 1×PBST buffer for one hour at room temperature. Later, they were incubated in the presence of the primary antibody overnight at 4° C. and then appropriate HRP-conjugated secondary antibodies (Life Technologies). […] The images were later quantified using AlphaEaseFC software (Alpha Innotech).
# Immunoprecipitation: PAECs were transfected with the indicated combinations of siRNAs by Lipofectamine 2000 (Thermo Fisher Scientific) according to the manufacturer's instructions and/or treated with BRD2889 ([…], 24 h). […] After extensive washing, the immunoprecipitated proteins were analyzed by immunoblotting with the indicated antibodies.
# PASMCs [1] = test: Apoptosis (caspase 3/7) in PASMCs; conditions: IL-6/sIL-6R + hypoxia
# Protocol: (§2) In IL-6/sIL-6R+hypoxia experiments, a human recombinant IL-6/IL-6R alpha protein chimera (25 ng/ml, Millipore) was administered at 70-80% confluency for 48 h in complete media along with vehicle control (DMSO, Sigma-41639). BRD2889 (1 uM) vs. vehicle control were added, as indicated, and placed into a hypoxia chamber for 24 h. The hypoxia chamber (modular incubator chamber) was obtained from Billups-Rothenberg Inc. (Del Mar, Calif) and placed in regulated CO2 incubator at 37° C.
# (§3) Cellular apoptosis: Caspase-3/7 activity was quantified using the Caspase-Glo 3/7 Assay (Promega), according to manufacturer's instructions. Caspase-3/7 activity was normalized to total protein content determined by BCA method (Thermo Fisher Scientific).
# ISCU = test: Immunoblot of ISCU and GSTP1 in PAECs
# Protocol: (§4) For hypoxia exposure, cells were plated in 6-well cell culture plates at 1×10^5 cells/well, grown for 24 hr and placed into a normobaric hypoxia chamber (1% O2) for 24 h under specific treatment conditions. Namely, for I-BET and siLGALS8 exposures, cells were either pre-treated with I-BET/vehicle control (VC) or transfected with siLgals8/Scr for 24 h. Then, they were cultured in basal media at 1% 02. After 24 h, caspase activity and mitochondrial superoxide levels were quantified. To detect activation status of pSTAT1/STAT1 by immunoblot, cells were exposed to 8 h of hypoxia.
# as §2, §1
# Immunoblot and densitometry: Cells were lysed in RIPA buffer (Sigma) along with 1× protease inhibitor cocktail (Sigma). Protein lysate was resolved by gradient 4%-15% SDS-PAGE gels and transferred onto a 0.2 μm PVDF membrane (Bio-Rad). Membranes were blocked in 5% non-fat milk in 1×PBST buffer for one hour at room temperature. Later, they were incubated in the presence of the primary antibody overnight at 4° C. and then appropriate HRP-conjugated secondary antibodies (Life Technologies). The following antibodies were used: human LGALS8 (AF1305, RnD Systems), mouse/rat Lgals8 (ab69631, Abcam), pSTAT1 (ab29045, Abcam) and STAT1 (ab47425, Abcam), GSTP1 (ab153949, Abcam), ISCU (14812-1-AP, Prointech), Glutathione (ab19534, Abcam), HIF2A (NB100-122, Novous), α-Tubulin (CP06, Millipore sigma), and ACTB (sc-47778, Santa Cruz). The immunoreactive bands were visualized with the Chemidoc XRS+system (Bio-Rad) using SuperSignal West Femto chemiluminescent substrates (Thermo Fisher Scientific). The images were later quantified using AlphaEaseFC software (Alpha Innotech).
# PAECs [2] = test: Global transcriptome microarray in PAECs; conditions: transcriptional array, hypoxia +/- BRD2889
# Description: The gene expression was normalized with Robust Multiarray Analysis (RMA). For BRD2889, the same approach was employed using Affymetrix Clariom S array on RNA isolated from PAECs treated with BRD2889 or vehicle and subjected to either hypoxia or normoxia. Differentially expressed genes were defined as any gene for which the FDR adjusted p-value was below 0.05 (n=3/grp). Reversed genes were further defined as those genes that were differentially expressed in both (hypoxia versus normoxia) and in (hypoxia+BRD2889 versus hypoxia)+vehicle as well as were regulated in opposite directions. Similarly, for I-BET that were differentially expressed in IL-1β+VC versus control and IL-1β+I-BET versus IL-1β+VC and were regulated in opposite directions. The data for both I-BET and BRD2889 have been submitted to the NCBI Gene Expression Omnibus with accession numbers GSE125508 and GSE160255, respectively.
# C43 genes ISCU and mTOR = test: RT-qPCR of Cluster 43 genes in PASMCs; conditions: BRD2889 5 uM
# Description: (§5) Cell culture: Primary human pulmonary artery endothelial cells (PAECs) and human pulmonary artery smooth muscle cells (PASMCs) were purchased from Lonza (302-05A, CC-2581). Of note, the same two male donors were the source of all PAECs in the experiments shown. Two additional male donors were the source for all PASMCs in the experiments shown. Cells from these and any donors were characterized by flow cytometry for consistent expression of cell surface markers and by RNA (RT-qPCR) analysis of endothelial and smooth muscle gene expression. PAECs were cultured in EGM-2 media (CC-3121) along with supplements (CC-4133), and PASMCs were cultured in SmGM-2 culture media (Lonza, CC-3182) at 5% CO2 in a humidified incubator.
# RT-qPCR analysis: Cells were lysis in 1 ml of QiaZol reagent (Qiagen). Total RNA content was extracted using the RNeasy kit (Qiagen), according to the manufacturer's instructions. Total RNA concentration was determined using a BioTek Synergy multimode plate reader. Messenger RNAs were reverse transcribed to generate cDNA using the Multiscript RT kit (Thermo Fisher Scientific). cDNA for specific gene targets was amplified and quantified via fluorescently-labeled Taqman primer sets and Taqman fast advanced master mix (Thermo Fisher Scientific) using an Applied Biosystems QuantStudio 6 Flex Real-Time PCR System.
# PAECs [3] = test: Apoptosis by caspase-3/7 activity in PAECs
# Description: as §5
# Human recombinant galectin-8 (1305-GA-050) was purchased from R&D Systems and was used at a working concentration of 30 nM.
# as §4, §2, §3
# PASMCs [4] = test: BrdU proliferation in PASMCs; conditions: IL-6/sIL-6R + hypoxia
# Protocol: as §2
# BrdU growth assay: Cell proliferation was assayed relative to day 0 using a BrdU Cell Proliferation Assay Kit (#6813, Cell Signaling) according to the manufacturer's protocol after incubation for 2 h with BrdU.
compound,measurement,setting,value
COc1ccc(C#CC2CCCN(C(=O)/C=C/c3cc(OC)c(OC)c(OC)c3)C2=O)cc1 (stereo not shown) [BRD2889],ISCU glutathionylation (α-GSH immunoblot after α-ISCU pulldown),glutathionylated ISCU,converse reduction of glutathionylation
same,apoptosis,PASMCs [1],only subtly changed
same,GSTP1 expression,"ISCU; PAECs, IL-6/R + hypoxia",without altering
same,ISCU expression (immunoblot),"ISCU; PAECs, IL-6/sIL-6R + hypoxia, BRD2889 1 uM",reversed the decrease
same,GSTP1 expression,ISCU; hypoxic PAECs,did not affect
same,ISCU protein levels,ISCU; hypoxic PAECs,reversed hypoxia-dependent reduction
same,number of genes altered by hypoxia but reversed by drug,PAECs [2],3830 genes
same,hypoxia-induced reduction in ISCU transcript,C43 genes ISCU and mTOR,unaffected
same,mTOR transcript,C43 genes ISCU and mTOR; hypoxia,no change
same,apoptosis (caspase 3/7),"PAECs [3]; PAECs, IL-6/sIL-6R + hypoxia",reduced apoptosis
same,apoptosis (caspase 3/7 activity),PAECs [3]; hypoxic PAECs,reversed the increase
same,hypoxic increase in apoptosis,PAECs [3]; hypoxic PAECs with siRNA knockdown of ISCU,did not reverse
same,proliferation,PASMCs [4],did not affect
